Measured values taken from patent US20070281330A1, “Method for Examining the Activity of Ion Channels” (priority 2004, published 2007).
Several values for one entry are separate records, joined by “and”; a condition that tells them apart may be missing. Identical values can stand only once.

Legend:
sodium channel SCN5a = sodium channel SCN5a (Homo sapiens, UniProt Q14524); format: cell-based
Kv1.3 = biological target: T1, Kv1.3 (Homo sapiens, UniProt P22001); experiment: FMP membrane potential assay on Kv1.3, suspension cells; format: cell-based; conditions: 100 nM Margatoxin, FMP dye
T1 construct: expressed in transfected cells
T1 sequence (P22001 whole entry): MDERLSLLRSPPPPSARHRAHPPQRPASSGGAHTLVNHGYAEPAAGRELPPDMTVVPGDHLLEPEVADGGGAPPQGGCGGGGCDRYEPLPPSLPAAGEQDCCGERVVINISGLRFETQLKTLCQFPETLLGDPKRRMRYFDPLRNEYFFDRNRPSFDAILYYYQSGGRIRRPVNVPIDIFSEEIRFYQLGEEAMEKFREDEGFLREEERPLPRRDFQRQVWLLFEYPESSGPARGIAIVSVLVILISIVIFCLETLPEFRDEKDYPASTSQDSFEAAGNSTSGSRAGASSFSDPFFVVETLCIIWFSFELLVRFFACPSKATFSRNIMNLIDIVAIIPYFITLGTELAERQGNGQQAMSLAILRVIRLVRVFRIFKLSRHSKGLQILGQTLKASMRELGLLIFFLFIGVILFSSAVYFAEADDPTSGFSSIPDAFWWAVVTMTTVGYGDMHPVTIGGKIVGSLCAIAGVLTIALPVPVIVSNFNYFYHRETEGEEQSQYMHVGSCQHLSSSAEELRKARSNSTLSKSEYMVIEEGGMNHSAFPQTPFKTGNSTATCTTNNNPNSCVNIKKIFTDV

[1] = 110 min 1° C. (after 10 min room temperature)

sodium channel SCN5a, sequence (Q14524 whole entry, looked up): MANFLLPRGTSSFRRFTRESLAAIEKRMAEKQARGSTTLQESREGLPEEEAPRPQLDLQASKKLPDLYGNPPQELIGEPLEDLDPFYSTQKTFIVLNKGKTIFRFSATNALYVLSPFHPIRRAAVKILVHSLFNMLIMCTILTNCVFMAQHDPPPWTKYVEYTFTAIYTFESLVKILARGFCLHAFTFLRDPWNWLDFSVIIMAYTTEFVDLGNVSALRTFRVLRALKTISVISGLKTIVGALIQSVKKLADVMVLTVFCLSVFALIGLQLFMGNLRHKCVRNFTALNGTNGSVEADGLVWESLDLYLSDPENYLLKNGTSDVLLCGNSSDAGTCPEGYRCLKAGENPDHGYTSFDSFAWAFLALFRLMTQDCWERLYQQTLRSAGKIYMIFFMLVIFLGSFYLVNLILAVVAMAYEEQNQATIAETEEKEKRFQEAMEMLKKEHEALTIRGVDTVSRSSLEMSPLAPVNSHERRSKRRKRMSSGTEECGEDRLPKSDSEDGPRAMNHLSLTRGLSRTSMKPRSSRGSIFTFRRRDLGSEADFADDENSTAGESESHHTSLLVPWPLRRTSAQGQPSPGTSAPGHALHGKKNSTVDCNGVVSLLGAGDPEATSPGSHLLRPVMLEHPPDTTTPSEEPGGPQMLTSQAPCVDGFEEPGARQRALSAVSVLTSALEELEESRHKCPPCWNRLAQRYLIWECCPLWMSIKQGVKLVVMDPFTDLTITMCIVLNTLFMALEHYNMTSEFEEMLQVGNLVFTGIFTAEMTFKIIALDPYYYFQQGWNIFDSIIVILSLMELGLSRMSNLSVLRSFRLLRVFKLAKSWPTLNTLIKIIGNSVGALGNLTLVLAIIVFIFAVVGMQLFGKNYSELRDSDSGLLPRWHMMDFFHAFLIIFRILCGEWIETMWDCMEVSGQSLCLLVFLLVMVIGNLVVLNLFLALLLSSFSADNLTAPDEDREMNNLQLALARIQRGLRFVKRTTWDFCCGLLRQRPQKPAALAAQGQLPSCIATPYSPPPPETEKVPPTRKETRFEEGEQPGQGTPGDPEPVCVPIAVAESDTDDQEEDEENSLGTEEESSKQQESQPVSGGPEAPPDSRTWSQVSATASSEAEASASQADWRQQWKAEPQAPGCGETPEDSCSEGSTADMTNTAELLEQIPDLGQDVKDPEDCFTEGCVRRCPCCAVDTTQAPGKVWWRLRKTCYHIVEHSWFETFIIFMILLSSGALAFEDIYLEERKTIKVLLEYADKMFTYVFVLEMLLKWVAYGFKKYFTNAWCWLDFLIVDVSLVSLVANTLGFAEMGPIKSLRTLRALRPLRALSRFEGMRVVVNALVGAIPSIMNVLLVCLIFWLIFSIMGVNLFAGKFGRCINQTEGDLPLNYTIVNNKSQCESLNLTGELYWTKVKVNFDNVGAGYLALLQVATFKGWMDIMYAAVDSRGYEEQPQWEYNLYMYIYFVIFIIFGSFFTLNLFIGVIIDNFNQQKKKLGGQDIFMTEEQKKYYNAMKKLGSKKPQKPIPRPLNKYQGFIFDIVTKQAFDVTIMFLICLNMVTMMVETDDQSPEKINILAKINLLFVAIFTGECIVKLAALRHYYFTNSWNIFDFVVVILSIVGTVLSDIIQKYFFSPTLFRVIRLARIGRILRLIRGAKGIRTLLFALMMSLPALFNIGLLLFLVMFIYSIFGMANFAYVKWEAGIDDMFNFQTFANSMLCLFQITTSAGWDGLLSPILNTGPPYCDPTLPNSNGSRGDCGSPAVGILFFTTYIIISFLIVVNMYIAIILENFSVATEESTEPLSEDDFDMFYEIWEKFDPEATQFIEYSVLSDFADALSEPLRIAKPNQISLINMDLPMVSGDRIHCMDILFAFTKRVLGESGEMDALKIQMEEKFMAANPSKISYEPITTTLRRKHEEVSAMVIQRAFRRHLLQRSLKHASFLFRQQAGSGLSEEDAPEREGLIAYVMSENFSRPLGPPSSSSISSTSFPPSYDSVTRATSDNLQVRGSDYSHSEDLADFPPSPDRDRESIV

Compound | 18° C. [RFUs] (sodium channel SCN5a) | Increase [%] (Kv1.3; 10 min room temperature) | [rfu] (Kv1.3; 10 min room temperature) | Increase [%] (Kv1.3; [1]) | [rfu] (Kv1.3; [1])
NC1=N[C@H](O)[C@H]2[C@H]3O[C@]4(O)O[C@@H]([C@@H](O)[C@@]2(N1)[C@@H]4O)[C@]3(O)CO [TTX, tetrodotoxin] | 4636.0 RFUs and 5379.0 RFUs and 2882.0 RFUs and 3816.0 RFUs and 4067.0 RFUs and 4401.0 RFUs and 5620.0 RFUs and 5034.0 RFUs |  |  |  | 
Margatoxin |  | 3% and 2.93% | 22479.50 rfu | 68% and 68.04% | 47474.00 rfu
